{"source": "patent US20240082398A1", "about": "“METHODS OF PREPARING AND EXPANDING TYPE I INNATE LYMPHOID CELLS AND THERAPEUTIC USES THEREOF” (City of Hope, priority 2021, published 2024)", "key": {"[1]": {"tested_on": "LS^−K^+ leukemia progenitor cells", "assay": "Differentiation of sorted leukemia progenitor cells into myeloid blasts", "type": "cell-based, mouse", "settings": "treated 5 days, among the groups", "protocol": "The process of LSC differentiation into AML blasts includes transitions from LSCs to LS^−K^+ leukemia progenitor cells, and from LS^−K^+ leukemia progenitor cells to AML blasts. To investigate which part of the process was affected by ILC1 and IFN-γ, LS^−K^+ leukemia progenitor cells were sorted from Mll^PTD/WT/Flt3^ITD/ITD AML mice, then the LS^−K^+ leukemia progenitor cells were treated with WT ILC1, ILC1s, or recombinant IFN-γ for 5 days. […] Thus, ILC1s block LSC differentiation into AML blasts, likely via a process involving by IFN-γ, during the transition from LSCs into LS^−K^+ leukemia progenitor cells, upstream of progenitor cell differentiation into AML blasts (FIG. 9D).\nLSCs transition into LS^−K^+ leukemia progenitor cells before becoming AML blasts."}, "[2]": {"tested_on": "mouse LSCs (Lin^−Sca-1^+c-Kit^+)", "assay": "LSCs and ILC1s in vitro co-culture assay (LSC apoptosis), mouse", "type": "cell-based", "settings": "recombinant murine cytokine instead of ILC1s, indicated doses, 3-4 days", "protocol": "A total of 2,000 LSCs from AML patients labeled with CTV were co-cultured with different numbers of human ILC1s supplemented with human IL-12 (10 ng/ml) and IL-15 (100 ng/ml). After 3 days of co-culture, cells were harvested and analyzed by flow cytometry. 7-AAD was used to identify dead cells. For mouse LSCs co-culture assay, 2,000 LSCs from Mll^PTD/WT/Flt3^ITD/ITD mice labeled with CTV were co-cultured with different numbers of mouse ILC1s supplemented with mouse IL-12 (10 ng/ml) and IL-15 (100 ng/ml). After 3 days of co-culture, cells were harvested and analyzed by flow cytometry. 7-AAD was used to identify the dead cells. For the co-culture of LSCs and ILC1s using the transwell co-culture system, 2,000 human or mouse LSCs were seeded in the lower chamber while different numbers of human or mouse ILC1s were seeded in the upper chamber. After 3 days, cells were harvested and analyzed by flow cytometry. 7-AAD was used to identify the dead cells. For co-culture assay with cytokines and antibodies, 2,000 human or mouse LSCs were co-cultured with different doses of human or mouse TNF-α, IFN-γ, anti-TNF-α (10 μg/ml) Ab, or anti-IFN-γ Ab (10 μg/ml). Three days after the co-culture, cells were harvested and analyzed by flow cytometry. 7-AAD was used to identify the dead cells.\nFor human LSC co-culture assays, LSCs from patients with AML were labeled with […] CTV and co-cultured in the presence of human IL-12 (10 ng/ml) and IL-15 (100 ng/ml) with various numbers of ILC1s isolated from peripheral blood of healthy donors or patients with AML. […] For all co-culture assays, cells were harvested after 3 days and analyzed using flow cytometry. […]\nILC1s were co-cultured with LSCs at a ratio of 1:1 or 1:2 for 6 h. […] Plates were then shaken at 300 rpm for 1 min, incubated for 60 min at room temperature, and then read on a luminometer (Promega, Glomax). Background luminescence was determined with 100 μl of culture medium without cells and subtracted before fold changes were calculated."}, "[3]": {"tested_on": "mouse LSCs", "assay": "RNA-seq of LSCs after ILC1 co-culture or IFN-γ treatment", "type": "cell-based", "settings": "vs untreated LSCs", "protocol": "For mouse ILC1 RNA-sequencing, mouse ILC1s were sorted from the liver of normal mice or mice with AML using BD FACSAria™ Fusion. […] Total RNA was isolated from ILC1s or LSCs using a miRNeasy mini kit (QIAGEN). PolyA RNA-seq was performed in the Integrative Genomics Core of City of Hope National Medical Center. SMART-Seq® Ultra Low Input RNA Kit for Sequencing-v4 (Takara Bio) was used for getting double-strand cDNA from each sample with 2 ng of input total RNA. The resulting cDNA was sheared using a Covaris LE220 sonicator. The sheared DNA was used for to prepare a sequencing library, using a KAPA HyperPrep Kit. The final libraries were quantified using the Qubit Assay Kit (Thermo Fisher Scientific) and Bioanalyzer (Agilent). Sequencing was performed using the single-read mode of 51 cycles of read1 and 7 cycles of index read with V4 reagents on a Hiseq 2500 system (Illumina). Real-time analysis (RTA) 2.2.38 software was used to process the image analysis and base calling.\n2,000 mouse LSCs were co-cultured with 1,000 ILC1s or treated with 1 ng/ml IFN-γ for 3 days, and then the LSCs were sorted using BD FACSAria Fusion. Total RNA of LSCs were isolated using miRNeasy mini kit (QIAGEN). SMART-Seq® Ultra Low Input RNA Kit for Sequencing-v4 was used for generating amplified double strand cDNA from each sample with 2 ng of input total RNA according to the manufacturer's protocol. The resulting double-stranded cDNA sheared with Covaris LE220 with the setting of DNA fragment size of 200 bp peak. The sheared DNA was used for sequencing library preparation by using KAPA HyperPrep Kits. The final libraries were quantified with qubit and bioanalyzer. The sequencing was performed with the single read mode of 51 cycles of read1 and 7 cycles of index read with V4 reagents on Hiseq2500. Real-time analysis (RTA) 2.2.38 software was used to process the image analysis and base calling.\nPrism software v.8 (GraphPad, CA, USA) was used to perform statistical analysis. Two group comparisons were performed with a two-tailed Student's t-test; multiple group comparisons were performed with a one-way ANOVA test with a multiple comparisons option. For Kaplan-Meier survival curve analysis, the comparisons were performed using a log-rank (Mantel-Cox) test. For continuous endpoints, Student's t test was used to compare two independent conditions, and one-way ANOVA models were used to compare three or more independent conditions. For repeated measures over time, linear mixed models were used to account for the variance and covariance structure. Mouse survival was estimated by the Kaplan-Meier method and compared by log-rank tests. All tests were two-sided. P values were adjusted for multiple comparisons by Holm's procedure. For RNA-seq analysis, sequencing reads were trimmed from sequencing adapters using Trimmomatic^74 and polyA tails using FASTPT^75, and then mapped back to the mouse genome (mm10) using STAR (v. 020201)^76. The gene-level count table was created by HTSeq (v.0.6.0)^77 and normalized by the TMM^78 method. General linear models based on negative binomial distributions (R package “EdgeR”) were used to compare gene expression levels between two specific cell types. […] Pathway and gene set enrichment analyses were performed using the GSEA^79,80 program, which runs the GSEAPreranked algorithm on a ranked list of genes. Data are presented as mean±SD. Prism software v.8 (GraphPad, CA, USA) and SAS v.9.4 (SAS Institute. NC, USA) were used to perform statistical analyses. The p-values are represented as: *<0.05, **<0.01, ***<0.001, and ****<0.0001"}}, "note": "“Also recorded” adds a separate entry of the source."}
{"substance": "recombinant murine IFN-γ: animal-free recombinant murine IFN-γ cytokine", "values": [{"measurement": "percentage of Mac-1^+ and Gr-1^+ cells from LS^−K^+ leukemia progenitor cells", "setting": "[1]", "result": "do not affect the differentiation of leukemia progenitor cells into myeloid blasts"}, {"measurement": "percentage of Mac-1^+ and Gr-1^+ cells from LS^−K^+ leukemia progenitor cells", "setting": "[1]; listed as recombinant IFN-γ", "result": "no statistical difference; also recorded: remained constant"}, {"measurement": "LSC apoptosis on treatment with recombinant cytokine", "setting": "[2]", "result": "We observed LSC apoptosis with IFN-γ"}, {"measurement": "LSC apoptosis on treatment with recombinant cytokine", "setting": "[2]; listed as IFN-γ", "result": "induces apoptosis of LSCs"}, {"measurement": "LSC apoptosis on treatment with recombinant cytokine", "setting": "[2]; listed as Recombinant murine IFN-γ", "result": "induced LSC apoptosis"}, {"measurement": "E2F targets, G2M checkpoints, MYC targets and mitotic spindle pathways in LSCs (GSEA)", "setting": "[3]", "result": "significant suppression; also recorded: significantly suppressing"}, {"measurement": "JAK-STAT and PI3K-AKT signaling pathways in LSCs", "setting": "[3]", "result": "activation of the JAK-STAT and PI3K-AKT signaling pathways"}, {"measurement": "apoptotic pathways in LSCs (GSEA)", "setting": "[3]", "result": "activated apoptotic pathways"}, {"measurement": "expression of Akt3, Jak2, Stat1/2, Irf1/2/7/8/9 and Socs1 in LSCs", "setting": "[3]", "result": "increased expression"}, {"measurement": "expression of genes associated with lymphoid differentiation (Gimap4, Gpb4, Irf8, Irf1)", "setting": "[3]", "result": "increased expression"}, {"measurement": "expression of genes associated with myeloid differentiation (S100a8/S100a9, Chil3, Serpinb1a, Slc28a2)", "setting": "[3]", "result": "reduced their expression"}]}
